Measurements: PMC10208570, “Peptidomimetic antibiotics disrupt the lipopolysaccharide transport bridge of drug-resistant Enterobacteriaceae” (Science Advances, 2023)
Where a SMILES comes first, the peptide text is derived from it. Bridges are numbered along the chain shown (N, C = ends). [ ]: non-standard residue; d: D form. Nle = CCCC[C@H](N)C(=O)O; Dab = NCC[C@H](N)C(=O)O

Key:
[1] = test system: K. pneumoniae NCTC 13443 (NDM-1) LptA Q62L mutant; experiment: microbe, parasite or virus in culture; conditions: for MIC K. pneumoniae NCTC 13443 (NDM-1) Q62L mutant: CLSI method, clone harboring LptA Q62L
Procedure: (§1) MIC assays [Clinical and Laboratory Standards Institute (CLSI) methodology] and serial passage studies were performed as described by Luther et al. ([6]). […] Resistant mutants were isolated, and their MIC values were determined and sent to Microbes NG (Birmingham, United Kingdom) for whole-genome sequencing and bioinformatic analysis.

[2] = test system: Klebsiella pneumoniae ATCC 43816 LptA L116Q mutant; experiment: microbe, parasite or virus in culture; conditions: Table S9 panel
Procedure: as §1

[3] = test system: Klebsiella pneumoniae ATCC 43816 LptA I36S mutant; experiment: microbe, parasite or virus in culture; conditions: Table S9 panel
Procedure: as §1

[4] = test system: Klebsiella pneumoniae ATCC 43816 LptA I36N mutant; experiment: microbe, parasite or virus in culture; conditions: Table S9 panel
Procedure: as §1

[5] = test system: Escherichia coli ATCC 25922 LptA E84D mutant; experiment: microbe, parasite or virus in culture; conditions: Table S9 panel
Procedure: as §1

[6] = test system: Escherichia coli ATCC 25922 KdsD mutant; experiment: microbe, parasite or virus in culture; conditions: Table S9 panel; other mutation
Procedure: as §1

[7] = test system: Klebsiella pneumoniae ATCC 43816 LapB mutant; experiment: microbe, parasite or virus in culture; conditions: Table S9 panel; other mutation
Procedure: as §1

[8] = test system: E. coli ATCC 25922 LptA Q62L mutant; experiment: microbe, parasite or virus in culture; conditions: for MIC E. coli ATCC 25922 Q62L mutant: CLSI method, clone harboring LptA Q62L
Procedure: as §1

[9] = test system: Klebsiella pneumoniae NCTC 13443 LpxC, LpxD mutant; experiment: microbe, parasite or virus in culture; conditions: Table S9 panel; other mutation
Procedure: as §1

[10] = test system: E. coli ATCC 25922 (parent / WT); experiment: microbe, parasite or virus in culture
Procedure: as §1

[11] = test system: Klebsiella pneumoniae NCTC 13443 YejM mutant; experiment: microbe, parasite or virus in culture; conditions: Table S9 panel; other mutation
Procedure: as §1

[12] = test system: K. pneumoniae ATCC 43816 LptA Q62L mutant; experiment: microbe, parasite or virus in culture
Procedure: as §1

[13] = test system: K. pneumoniae NCTC 13443 (NDM-1) (parent / WT); experiment: microbe, parasite or virus in culture
Procedure: as §1

[14] = test system: K. pneumoniae ATCC 43816 (parent / WT); experiment: microbe, parasite or virus in culture
Procedure: as §1

[15] = test system: Klebsiella pneumoniae ATCC 43816 PglJ, PhnJ, ThiH mutant; experiment: microbe, parasite or virus in culture; conditions: Table S9 panel; other mutation
Procedure: as §1

[16] = test system: Klebsiella pneumoniae NCTC 13443 LptA I36S mutant; experiment: microbe, parasite or virus in culture; conditions: Table S9 panel
Procedure: as §1

[17] = test system: panel of 121 Enterobacteriaceae including CRE, MDR, and XDR isolates; experiment: organism not typed; conditions: CLSI microdilution method; 121 isolates
Procedure: as §1

[18] = test system: Enterobacteriaceae (CS, Col-S) (n=22); assay type: cell-based; conditions: CLSI microdilution; minimum and maximum MIC of the panel; carbapenem sensitive, colistin sensitive
Procedure: as §1

K. pneumoniae = assay type: cell-based, Klebsiella pneumoniae; conditions: serial passage in broth at sub-MIC and multiples of the MIC
Procedure: as §1
(§2) Fig. S8. Resistance development studies by serial passage. Broth containing a single antibiotic at sub-MIC and multiples of the MIC were inoculated with bacteria. Drug concentrations were […]
(§3) day 1 and 2 of passaging.
(§4) (1 picture or pasted object on this page, not shown here)

E. coli = assay type: cell-based, Escherichia coli; conditions: serial passage in broth at sub-MIC and multiples of the MIC
Procedure: as §1, §2, §3, §4

[19] = test system: K. pneumoniae 968733 (CST-R); experiment: MIC assay (CLSI); assay type: cell-based, Klebsiella pneumoniae; conditions: CLSI method; colistin-resistant strain
Procedure: as §1

LptAm = molecular target: T1, LptAm (Escherichia coli, UniProt P0ADV1); experiment: biochemical; assay type: binding, E. coli
T1 construct: His6-GB1 (N, cleaved yes); made in house; host or cells: E. coli BL21 (DE3)
T1 sequence (P0ADV1 28-159): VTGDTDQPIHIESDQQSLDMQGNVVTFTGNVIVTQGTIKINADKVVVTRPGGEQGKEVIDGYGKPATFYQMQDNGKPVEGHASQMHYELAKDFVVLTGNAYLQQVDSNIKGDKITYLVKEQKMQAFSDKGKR
Procedure: (§5) Protein stocks were purified and concentrated in buffer 1 [50 mM Na-Pi (pH 7) and 150 mM NaCl] and, if necessary, diluted to desired concentrations using buffer 2 [50 mM Na-Pi (pH 7), 150 mM NaCl, and 0.05% Tween 20]. Peptide stocks and fluorescently labeled peptide stocks were made in buffer 2. Every serial dilution consisted of 24 wells, the first well with the highest concentrate and the last well (well 24) with the lowest. First, 50 μl of buffer 2 was added to the wells 2 to 24 of each serial dilution. Then, 100 μl of concentrated unlabeled peptide/protein in their respective buffers was added to the first well. Fifty microliters were taken from the first well and added to the second well for a 1:1 serial dilution and continued for the 24 wells. […] Plates were covered with adhesive seals and left to incubate overnight at 4°C before FP measurements the next day. Anisotropy was measured using the Tecan Safire2 plate reader using a 10-nm bandwidth and setting the excitation and emission wavelengths to 635 and 670 nm, respectively. The G-factor (G) was also determined empirically as 1.094 for the instrument and included in all the anisotropy calculations.
(§6) For the indirect binding assays, r was calculated in the same manner as the direct binding assays. […] The control was subtracted from r to yield r′. Data were fit to a sigmoidal interpolation model on GraphPad Prism 9, and an IC50 was generated for each unlabeled peptide or protein measured.

LptAmQ62L = molecular target: T2, LptAmQ62L (Escherichia coli, UniProt P0ADV1, Q62L); experiment: biochemical; assay type: binding, E. coli
T2 construct: His6-GB1 (N, cleaved yes); made in house; host or cells: E. coli BL21 (DE3)
T2 sequence (P0ADV1 28-159 Q62L): as the sequence (P0ADV1 28-159) above, with Q35L counted along it
Procedure: as §5, §6

Plasma protein binding [20] = assay type: in vitro ADME, mouse; conditions: mouse, plasma, pH 7.5
Procedure: (§7) After ultrafiltration, protein binding was determined by subtracting the percentage of compound in ultrafiltrate from the total amount of compound in spiked plasma (table S4A).

Plasma protein binding [21] = assay type: in vitro ADME, human; conditions: human, plasma, pH 7.5
Procedure: as §7

human red blood cells = experiment: Haemolysis; assay type: cell-based; conditions: PBS-washed human red blood cells; 1 h at 200 mg/liter, 37°C; OD 540 nm; versus 100% lysis control 2.5% Triton X-100; biological replicates
Procedure: To test their hemolytic potential, compounds were incubated in the presence of phosphate-buffered saline (PBS)–washed human red blood cells. After 1-hour incubation at 200 mg/liter and 37°C, the samples were centrifuged (3220g), the supernatants were diluted in Dulbecco’s PBS, and optical density at 540 nm was determined. The hemolysis induced by the compound was calculated versus a 100% lysis control prepared with 2.5% Triton X-100 (table S4A).

in vitro = assay type: cell-based; conditions: human
Procedure: The cytotoxicity of compounds was determined by determining the number of viable cells using the Sigma Cell Counting Kit-8 (WST-8). HeLa cells were incubated at 37°C and 5% CO2 for 24 hours, after which the medium was replaced with fresh medium containing dilutions of compounds. […]

Q: For Colistin, which “MIC K. pneumoniae NCTC 13443 (NDM-1) Q62L mutant” value [1] is on record?
A: Its value is 0.125 micrograms per milliliter.

Q: What about the “MIC Klebsiella pneumoniae NCTC 13443 LptA Q62L (5x)” value ([1]; Table S9 panel) of the same molecule?
A: Its value is 0.13 µg/mL.

Q: What about the “MIC Klebsiella pneumoniae ATCC 43816 LptA L116Q (1x)” value [2] of the same molecule?
A: The value was 0.13 µg/mL.

Q: What about the “MIC Klebsiella pneumoniae ATCC 43816 LptA I36S (1x)” value [3] of the same molecule?
A: Its value is 0.13 µg/mL.

Q: What about the “MIC Klebsiella pneumoniae ATCC 43816 LptA I36N (1x)” value [4] of the same molecule?
A: Its value is ≤ 0.06 µg/mL.

Q: And the “MIC Escherichia coli ATCC 25922 LptA E84D (1x)” value [5]?
A: The value was 0.25 µg/mL.

Q: And the “MIC Escherichia coli ATCC 25922 KdsD (2x)” value [6]?
A: The value was 0.25 µg/mL.

Q: And the “MIC Klebsiella pneumoniae ATCC 43816 LapB (1x)” value [7]?
A: Its value is 0.13 µg/mL.

Q: And the “MIC E. coli ATCC 25922 Q62L mutant” value [8]?
A: Its value is 0.25 micrograms per milliliter.

Q: What about the “MIC Escherichia coli ATCC 25922 LptA Q62L (7x)” value ([8]; Table S9 panel) of the same molecule?
A: Its value is 0.13 µg/mL.

Q: And the “MIC Klebsiella pneumoniae NCTC 13443 LpxC, LpxD (1x)” value [9]?
A: Its value is 0.25 µg/mL.

Q: And the “MIC Escherichia coli ATCC 25922 WT” value ([10]; Table S9 panel, WT)?
A: The value was 0.25 µg/mL.

Q: What about the “MIC Klebsiella pneumoniae NCTC 13443 YejM (1x)” value [11] of the same molecule?
A: The value was 0.25 µg/mL.

Q: And the “MIC K. pneumoniae ATCC 43816 Q62L mutant” value ([12]; CLSI method, clone harboring LptA Q62L)?
A: The value was 0.125 micrograms per milliliter.

Q: And the “MIC Klebsiella pneumoniae ATCC 43816 LptA Q62L (4x)” value ([12]; Table S9 panel)?
A: Its value is 0.13 µg/mL.

Q: What about the “MIC Klebsiella pneumoniae NCTC 13443 WT” value ([13]; Table S9 panel, WT) of the same molecule?
A: Its value is 0.25 µg/mL.

Q: What about the “MIC K. pneumoniae ATCC 43816 Parent” value ([14]; CLSI method, parent strain) of the same molecule?
A: Its value is 0.125 micrograms per milliliter.

Q: What about the “MIC Klebsiella pneumoniae ATCC 43816 WT” value ([14]; Table S9 panel, WT) of the same molecule?
A: The value was 0.13 µg/mL.

Q: What about the “MIC Klebsiella pneumoniae ATCC 43816 PglJ, PhnJ, ThiH (1x)” value [15] of the same molecule?
A: The value was 0.13 µg/mL.

Q: And the “MIC Klebsiella pneumoniae NCTC 13443 LptA I36S (2x)” value [16]?
A: Its value is 0.13 µg/mL.

Q: What about the “MIC50 (n=121)” value [17] of the same molecule?
A: Its value is 0.13 µg/mL.

Q: What about the “MIC90 (n=121)” value [17] of the same molecule?
A: Its value is > 8 µg/mL.

Q: What about the “MIC range Enterobacteriaceae (CS, Col-S) (n=22)” value [18] of the same molecule?
A: Its value is 0.06 to 0.5 µg/mL.

Q: What about the “Development of resistance, day of passaging, K. pneumoniae” value (K. pneumoniae) of the same molecule?
A: The value was 1 to 3 days.

Q: What about the “Development of resistance, day of passaging, E. coli” value (E. coli) of the same molecule?
A: The value was 5 to 7 days.

Q: And the “MIC K. pneumoniae 968733 (CST-R) Parent” value [19]?
A: Its value is >8 micrograms per milliliter.

Q: Which “MIC K. pneumoniae NCTC 13443 (NDM-1) Q62L mutant” value [1] does the source give for CCCC[C@H](NC(=O)[C@H](CCCNC(=N)N)NC(=O)[C@H](CCN)NC(=O)[C@@H]1CSSC[C@H](NC(=O)[C@H](Cc2ccc(O)cc2)NC(=O)[C@@H](NC(=O)[C@@H](NC(=O)[C@@H]2CCCN2C(=O)[C@@H](NC(=O)[C@@H]2CCCN2C(=O)[C@H](CCCCN)NC(=O)[C@@H](N)CCCCN)C(C)C)[C@@H](C)CC)[C@@H](C)CC)C(=O)N[C@@H](CC(N)=O)C(=O)N[C@@H](CCCNC(=N)N)C(=O)N[C@@H](CCCNC(=N)N)C(=O)N[C@@H]([C@@H](C)O)C(=O)NCC(=O)N[C@@H](CCCCN)C(=O)N1)C(=O)O [Compound 1] (H-KKPVPIIYCNRRTGKC[Dab]R[Nle]-OH; disulfide 9-16) here?
A: Its value is >8 micrograms per milliliter.

Q: And the “MIC E. coli ATCC 25922 Q62L mutant” value [8]?
A: Its value is >8 micrograms per milliliter.

Q: And the “MIC E. coli ATCC 25922 Parent” value ([10]; CLSI method, parent strain)?
A: Its value is 0.063 micrograms per milliliter.

Q: And the “MIC K. pneumoniae NCTC 13443 (NDM-1) Parent” value ([13]; CLSI method, parent strain)?
A: The value was 0.5 micrograms per milliliter.

Q: And the “MIC K. pneumoniae ATCC 43816 Parent” value ([14]; ATCC 43816)?
A: Its value is 0.25 micrograms per milliliter.

Q: And the IC50 (LptAm)?
A: The IC50 was 6.6 ± 0.5 nM.

Q: And the Ki (LptAm)?
A: Its Ki is 1.1 ± 0.1 nM.

Q: What about the IC50 (LptAmQ62L) of the same molecule?
A: Its IC50 is 30.4 ± 8.8 nM.

Q: And the Ki (LptAmQ62L)?
A: Its Ki is 20.5 ± 6 nM.

Q: What about the fraction unbound at 30 min, 10 mg/liter (Plasma protein binding [20]) of the same molecule?
A: The fraction unbound at 30 min, 10 mg/liter was 0.14.

Q: What about the fraction unbound at 30 min, 10 mg/liter (Plasma protein binding [21]) of the same molecule?
A: The fraction unbound at 30 min, 10 mg/liter was 0.24.

Q: What about the “Haemolysis % at 0.2 g/L” value (human red blood cells) of the same molecule?
A: The value was 0%.

Q: What about the IC50 at 48 h (in vitro) of the same molecule?
A: The IC50 at 48 h was 158 µM.
